Holding throughout (type): functional
Assay [1] relates to Staphylococcus aureus. The assay can be described thus: Antibacterial activity against Staphylococcus aureus 144 assessed as inhibition of visible growth incubated for 24 hrs by CLSI protocol based broth microdilution method. (In broth dilution the organism is exposed to a series of concentrations in liquid medium.)
Assay [2] relates to Staphylococcus aureus. The assay can be described thus: Antibacterial activity against methicillin-resistant Staphylococcus aureus ATCC 43300 assessed as inhibition of visible growth incubated for 24 hrs by CLSI protocol based broth microdilution method.
In assay [3] the test system is Staphylococcus aureus. The assay can be described thus: Antibacterial activity against Staphylococcus aureus ATCC 29213 assessed as inhibition of visible growth incubated for 24 hrs by CLSI protocol based broth microdilution method.
The subject of assay [4] is Staphylococcus aureus. The assay can be described thus: Antibacterial activity against Staphylococcus aureus AD3 assessed as inhibition of visible growth incubated for 24 hrs by CLSI protocol based broth microdilution method.

Values after ≈ are worked out from the molar mass of the structure shown.

As usually defined, the MIC is the lowest concentration found to suppress growth. In the case of `C=C[C@]1(C)C[C@@H](OC(=O)CSc2nc(N)n(C(=O)c3cc(Cl)cc(Cl)c3)n2)[C@]2(C)[C@H](C)CC[C@]3(CCC(=O)[C@H]32)[C@@H](C)[C@@H]1O`, the MIC in the assay with Staphylococcus aureus [1] was found to be 1 µg/mL (≈ 1.54 µM); in the assay on Staphylococcus aureus [2], 1 µg/mL (≈ 1.54 µM); with Staphylococcus aureus [3], 1 µg/mL (≈ 1.54 µM); in the assay on Staphylococcus aureus [4], 0.5 µg/mL (≈ 0.77 µM).
`C=C[C@]1(C)C[C@@H](OC(=O)CSc2nc(N)n(C(=O)c3ccccc3C(F)(F)F)n2)[C@]2(C)[C@H](C)CC[C@]3(CCC(=O)[C@H]32)[C@@H](C)[C@@H]1O`: the MIC in the assay with Staphylococcus aureus [1] was determined as 4 µg/mL (≈ 6.17 µM); in the assay on Staphylococcus aureus [2], 2 µg/mL (≈ 3.08 µM); with Staphylococcus aureus [3], 4 µg/mL (≈ 6.17 µM); in the assay on Staphylococcus aureus [4], 4 µg/mL (≈ 6.17 µM).
In the case of `C=C[C@]1(C)C[C@@H](OC(=O)CSc2nc(N)n(C(=O)c3ccc(C(F)(F)F)cc3)n2)[C@]2(C)[C@H](C)CC[C@]3(CCC(=O)[C@H]32)[C@@H](C)[C@@H]1O`, the MIC in the assay with Staphylococcus aureus [1], in the assay on Staphylococcus aureus [2], with Staphylococcus aureus [3] and with Staphylococcus aureus [4] was 1 µg/mL (≈ 1.54 µM) each time.
Consider `C=C[C@]1(C)C[C@@H](OC(=O)CSc2nc(N)n(C(=O)c3ccccc3OC)n2)[C@]2(C)[C@H](C)CC[C@]3(CCC(=O)[C@H]32)[C@@H](C)[C@@H]1O`, for which the MIC in the assay on Staphylococcus aureus [1], in the assay on Staphylococcus aureus [2], with Staphylococcus aureus [3] and in the assay with Staphylococcus aureus [4] was 1 µg/mL (≈ 1.64 µM) in each case.
As to `C=C[C@]1(C)C[C@@H](OC(=O)CSc2nc(N)n(C(=O)c3ccccc3C)n2)[C@]2(C)[C@H](C)CC[C@]3(CCC(=O)[C@H]32)[C@@H](C)[C@@H]1O`, the MIC with Staphylococcus aureus [1] was found to be 1 µg/mL (≈ 1.68 µM); in the assay on Staphylococcus aureus [2], 0.5 µg/mL (≈ 0.841 µM); in the assay with Staphylococcus aureus [3] it was 1 µg/mL (≈ 1.68 µM); in the assay on Staphylococcus aureus [4], 1 µg/mL (≈ 1.68 µM).
For the molecule `C=C[C@]1(C)C[C@@H](OC(=O)CSc2nc(N)n(C(=O)c3ccccc3F)n2)[C@]2(C)[C@H](C)CC[C@]3(CCC(=O)[C@H]32)[C@@H](C)[C@@H]1O`, the MIC with Staphylococcus aureus [1] was found to be 4 µg/mL (≈ 6.68 µM); in the assay with Staphylococcus aureus [2], 1 µg/mL (≈ 1.67 µM); with Staphylococcus aureus [3] it was 2 µg/mL (≈ 3.34 µM); in the assay on Staphylococcus aureus [4] it was 2 µg/mL (≈ 3.34 µM).
On to `C=C[C@]1(C)C[C@@H](OC(=O)CSc2nc(N)n(C(=O)c3cccc(OC)c3)n2)[C@]2(C)[C@H](C)CC[C@]3(CCC(=O)[C@H]32)[C@@H](C)[C@@H]1O`, for which the minimum inhibitory concentration (MIC) was 0.5 µg/mL (≈ 0.819 µM) in the assay with Staphylococcus aureus [1], 0.25 µg/mL (≈ 0.409 µM) with Staphylococcus aureus [2], 0.5 µg/mL (≈ 0.819 µM) in the assay with Staphylococcus aureus [3] and 0.5 µg/mL (≈ 0.819 µM) in the assay with Staphylococcus aureus [4].
Turning to `C=C[C@]1(C)C[C@@H](OC(=O)CSc2nc(N)n(C(=O)c3ccc(Cl)cc3)n2)[C@]2(C)[C@H](C)CC[C@]3(CCC(=O)[C@H]32)[C@@H](C)[C@@H]1O`, the MIC in the assay with Staphylococcus aureus [1] stood at 1 µg/mL (≈ 1.63 µM); in the assay on Staphylococcus aureus [2], 0.5 µg/mL (≈ 0.813 µM); with Staphylococcus aureus [3], 1 µg/mL (≈ 1.63 µM); in the assay with Staphylococcus aureus [4] it was 1 µg/mL (≈ 1.63 µM).
As to `C=C[C@]1(C)C[C@@H](OC(=O)CSc2nc(N)n(C(=O)c3c(F)c(F)c(F)c(F)c3F)n2)[C@]2(C)[C@H](C)CC[C@]3(CCC(=O)[C@H]32)[C@@H](C)[C@@H]1O`, the MIC in the assay with Staphylococcus aureus [1] turned out to be 2 µg/mL (≈ 2.98 µM); in the assay on Staphylococcus aureus [2], 1 µg/mL (≈ 1.49 µM); with Staphylococcus aureus [3] it was 2 µg/mL (≈ 2.98 µM); in the assay on Staphylococcus aureus [4], 1 µg/mL (≈ 1.49 µM).
For `C=C[C@]1(C)C[C@@H](OC(=O)CSc2nc(N)n(C(=O)c3ccc(OC(F)(F)F)cc3)n2)[C@]2(C)[C@H](C)CC[C@]3(CCC(=O)[C@H]32)[C@@H](C)[C@@H]1O`, the MIC in the assay with Staphylococcus aureus [1] was 2 µg/mL (≈ 3.01 µM); with Staphylococcus aureus [2] it was 1 µg/mL (≈ 1.5 µM); in the assay on Staphylococcus aureus [3], 2 µg/mL (≈ 3.01 µM); with Staphylococcus aureus [4], 1 µg/mL (≈ 1.5 µM).
With `C=C[C@]1(C)C[C@@H](OC(=O)CSc2nc(N)n(C(=O)c3ccc(F)cc3)n2)[C@]2(C)[C@H](C)CC[C@]3(CCC(=O)[C@H]32)[C@@H](C)[C@@H]1O`, the MIC with Staphylococcus aureus [1] came to 1 µg/mL (≈ 1.67 µM); with Staphylococcus aureus [2], 0.5 µg/mL (≈ 0.835 µM); in the assay on Staphylococcus aureus [3], 1 µg/mL (≈ 1.67 µM); with Staphylococcus aureus [4] it was 1 µg/mL (≈ 1.67 µM).
Regarding `C=C[C@]1(C)C[C@@H](OC(=O)CSc2nc(N)n(C(=O)c3ccccc3Cl)n2)[C@]2(C)[C@H](C)CC[C@]3(CCC(=O)[C@H]32)[C@@H](C)[C@@H]1O`, the MIC in the assay with Staphylococcus aureus [1] stood at 1 µg/mL (≈ 1.63 µM); with Staphylococcus aureus [2], 0.5 µg/mL (≈ 0.813 µM); in the assay on Staphylococcus aureus [3] it was 0.5 µg/mL (≈ 0.813 µM); with Staphylococcus aureus [4], 0.5 µg/mL (≈ 0.813 µM).

The record behind these values is ChEMBL document CHEMBL4814060, “Design, synthesis and biological evaluation of novel pleuromutilin derivatives as potent anti-MRSA agents targeting the 50S ribosome” (Bioorg Med Chem, 2021).
